In US20120329770A1, “CEPHALOSPORIN DERIVATIVES USEFUL AS BETA-LACTAMASE INHIBITORS AND COMPOSITIONS AND METHODS OF USE THEREOF” (priority 2010, published 2012):

Key:
[1] = target: T1, class A β-lactamase KPC-2 (Klebsiella pneumoniae, UniProt Q9F663); assay: Inhibition of β-lactamases, nitrocefin hydrolysis; type: biochemical; settings: nitrocefin 100 μM, 10 min pre-incubation
T1 construct: calculated for a mature protein with a 24 amino acid signal peptide removed; made in house; host or cells: Escherichia coli DH5α (pBR322-catI-blaKPC-2)
Experimental: The KPC-2 β-lactamase was purified from Escherichia coli DH5α strain containing the plasmid, pBR322-catI-blaKPC-2, which was kindly provided by Prof. F. van den Akker (Case Western Reserve University). Expression and purification of the enzyme was similar to that reported by Ke et al. (Biochemistry 2007, 46, 5732-5740). A molecular weight of 28,472 Da for the purified KPC-2 was determined by ESI MS. This is in close agreement with that calculated for a mature protein with a 24 amino acid signal peptide removed.
(§1) Assay conditions for IC50 determinations involved enzyme concentrations ranging between 2 and 6 nM. The concentration used for the nitrocefin substrate was 100 μM. Assays with OXA-10 and OXA-45 were conducted at pH 7.0 with 100 mM sodium phosphate buffer containing 25 mM sodium bicarbonate. Assays with KPC-2 and GC1 were performed at pH 7.0 in 50 mM HEPES buffer and assays with IMP-1 and VIM-2 were performed in the same buffer with the addition of 500 mM NaCl and 1 μM ZnSO4. BSA was used with all enzymes (except OXA-10 and KPC-2) at concentrations of 0.5-1.0 μg/mL.
(§2) Inhibitors were pre-incubated for 10 minutes at room temperature with enzyme assay solutions prior to the addition of the nitrocefin. […] Enzymatic activity was determined using the initial rate of increase in absorbance at 482 nm

[2] = target: T2, IMP-1 metallo-β-lactamase (Serratia marcescens, UniProt P52699); assay: Inhibition of β-lactamases, nitrocefin hydrolysis; type: biochemical
T2 construct: made in house; host or cells: Escherichia coli BL21(DE3) carrying pCIP4
Excerpt: IMP-1 metallo-β-lactamase was expressed in Esherichia coli BL21(DE3) carrying pCIP4 and purified as reported by Laraki et al. (Antimicrob. Agents Chemother. 1999, 43, 902-906). The homogeneity of the protein was confirmed by SDS-PAGE according to the method of Laemmli (Nature 1970, 227, 680-685). The molecular weight of purified IMP-1, Mr=25,112±0.5 Da, as determined by ESI-MS, was in agreement with that deduced from its amino acid sequence (Laraki et al. Antimicrob. Agents Chemother. 1999, 43, 890-901).
as §1
(§3) Inhibitors were pre-incubated for 10 minutes at room temperature with enzyme assay solutions prior to the addition of the nitrocefin. These compounds were dissolved in DMSO and prepared at various concentrations such that the final concentration of DMSO was 1% during the pre-incubation. The reaction was initiated by the addition of the pre-incubated enzyme-cyclobutanone solution (90 μL) to a solution of nitrocefin in buffer (10 μL). Enzymatic activity was determined using the initial rate of increase in absorbance at 482 nm

[3] = target: T3, VIM-2 metallo-β-lactamase (Pseudomonas aeruginosa, UniProt Q9K2N0); assay: Inhibition of β-lactamases, nitrocefin hydrolysis; type: biochemical; settings: nitrocefin 100 μM, 10 min pre-incubation; read-out: IC50 VIM-2 (Class B)
T3 construct: made in house; host or cells: Escherichia coli BL21 (DE3) pLysS carrying pNOR2001
Experimental: VIM-2 metallo-β-lactamase was expressed in Escherichia coli BL21 (DE3) pLysS carrying pNOR2001 (a generous gift from P. Nordmann, Université Paris XI, France) and purified as reported by Poirel et al. (Antimicrob. Agents Chemother. 2000, 44, 891-897). The homogeneity and molecular weight of the mature VIM-2 (29.7 kDa) was determined by SDS-PAGE (Laemmli, U. K. Nature 1970, 227, 680-685). Enzyme concentration was determined from the absorbance at 280 nm (εEM=32,000 M^−1 cm^−1).
as §1, §2

[4] = target: class B β-lactamase NDM-1 (Klebsiella pneumoniae, UniProt C7C422); assay: Inhibition of β-lactamases, nitrocefin hydrolysis; type: biochemical; settings: 15 μM nitrocefin
class C β-lactamase GC1 = target: T4, class C β-lactamase GC1 (Enterobacter cloacae, UniProt Q59401); assay: Inhibition of β-lactamases, nitrocefin hydrolysis; type: biochemical; settings: nitrocefin 100 μM, 10 min pre-incubation
T4 construct: made in house; host or cells: Escherichia coli AS226-51 harbouring pCS100
Experimental: GC1 β-lactamase was purified from Escherichia coli AS226-51 harbouring pCS100, which was a generous gift from Prof. M. Nukaga (Josai International University, Japan). The cell culture was harvested and subjected to a stringent periplasmic lysis protocol according to Crichlow et al. (Biochemistry 1999, 38, 10256-10261.). Purification proceeded similarly to Nukaga et al. (J. Biol. Chem. 2004, 279, 9344-9352.) with cation exchange chromatography (CM Sephadex C-50) equilibrated with 10 mM sodium phosphate buffer (pH 6), followed by elution with a stepwise gradient of increasing NaCl concentration. Fractions containing β-lactamase activity were then applied to a phenylboronate column (MoBiTec, Germany), equilibrated with 20 mM triethanolamine.HCl, pH 7.0, 0.5 M NaCl. The column was washed with the same buffer and then eluted with sterile 0.5 M borate buffer, pH 7.0, 0.5 M NaCl. Active fractions eluted from the phenylboronate column were analyzed for purity via SDS-PAGE, pooled, and concentrated before buffer exchange to 100 mM sodium phosphate, pH 7.0.
(§4) Assay conditions for IC50 determinations involved enzyme concentrations ranging between 2 and 6 nM. […]
as §2

[5] = target: T5, class D β-lactamase OXA-10 (Pseudomonas aeruginosa, UniProt P14489); assay: Inhibition of β-lactamases, nitrocefin hydrolysis; type: biochemical
T5 construct: indicating a post-translational deletion of a 20 amino acid signal peptide; made in house; host or cells: Escherichia coli BL21 (DE3), pET24a-blaOXA-10, purified from culture supernatant
Excerpt: OXA-10 β-lactamase was expressed and purified using a modified protocol of that reported by Golemi et al. (J. Am. Chem. Soc. 2000, 122, 6132-6133). The pET24a plasmid with the blaOXA-10 gene insert, a kind gift from Prof. S. Mobashery (Notre Dame University), was transformed into Escherichia coli BL21 (DE3) and induced with IPTG. Purification of the enzyme was achieved by the addition of ammonium sulfate to the induced culture supernatant. The protein precipitate collected (50-70% ammonium sulfate saturation) was dissolved and dialyzed against 10 mM Tris.SO4 buffer, pH 7.5, and further purified with a DE52 cellulose column (Whatman, UK) equilibrated with the same buffer. The material bound to the column was washed with 10 mM Tris.SO4 buffer, pH 7.5, followed by an elution with a K2SO4 gradient (0-100 mM). Protein fractions containing nitrocefin-hydrolyzing activity were concentrated and purity analyzed by SDS-PAGE. A molecular weight of 27,490 Da for OXA-10 was determined by ESI MS, indicating a post-translational deletion of a 20 amino acid signal peptide.
as §4, §2

[6] = target: class D β-lactamase OXA-45 (Pseudomonas aeruginosa, UniProt Q7WZC7); assay: Inhibition of β-lactamases, nitrocefin hydrolysis; type: biochemical
Experimental: OXA-45 β-lactamase was purified in the laboratory of Prof. T. Walsh (University of Bristol, UK) according to the method published (Toleman, M. A.; Rolston, K.; Jones, R. N.; Walsh, T. R. Antimicrob. Agents Chemother. 2003, 47, 2859-2863) and provided to this laboratory as a kind gift.
as §1, §3

[7] = tested on: Chryseobacterium meningosepticum IS 5824; assay: Antimicrobial MIC / checkerboard assay for synergy with meropenem; type: cell-based; settings: C. meningosepticum IS 5824; meropenem + compound, checkerboard
Experimental: (§5) Assays were conducted as described by Weigand et al. (Weigand, I.; Hilpert, K.; Hancock, R. E. Nat. Protocols 2008, 3, 163-175).
(§6) To determine the lowest concentration of an antimicrobial agent that inhibits visible growth of a microorganism, 50 μL of compound solution and 50 μL of buffer solution were added to each well at the desired concentration(s) (i.e. 4×the final concentration) as well as a zero control. Stock solutions of 10 mg/mL, were prepared in DMSO, followed by two-fold serial dilutions in Müeller-Hinton media and 100 μL of bacteria (ca. 5×10^5 CFU/mL) was added to each well. Plate counts were performed on the control wells to determine bacterial innoculum level. The innoculum was prepared by taking an overnight culture in Müeller-Hinton media and diluting to McFarland's 0.5 standard, and diluting a further 1:100 prior to addition to the plate. Lanes with no bacteria added served as sterility controls and lanes with no compound served as growth controls. Organisms were allowed to grow overnight at 37° C. in a humid environment and the plates were monitored at 625 nm for growth. MIC was determined to be the last well with no growth.
(§7) In the checkerboard assay one compound is serially diluted along the ordinate, and the second compound is serially diluted along the abscissa. […] A 50 μL aliquot of the compound was added to each well at the desired concentration(s) (i.e. 4×the final concentration) as well as a zero control. Stock solutions of 10 mg/mL of compound were prepared in DMSO, followed by two-fold serial dilutions in Müeller-Hinton media. Finally, 100 μL of bacteria (ca. 5×10^5 CFU/mL) was added to each well. Plate counts were performed on the control wells. Innoculum was prepared by taking an overnight culture in Müeller-Hinton media and diluting to McFarland's 0.5 standard, and diluting a further 1:100 prior to addition to the plate. Lanes with no bacteria added served as sterility controls and lanes with no meropenem or compound served as growth controls. The final volume in each well was 200 μL. The plates were allowed to grow overnight at 37° C. in a humid environment and were monitored at 625 nm for growth. […] Sterility controls and growth controls were included on each plate. The fractional inhibitory concentration (FIC) was determined as follows:
(§8) Results were interpreted in the following way: Synergistic if FIC≦0.5; Additive if […]; Indifferent if […]; Antagonistic if FIC≧2.0.

[8] = tested on: Pseudomonas aeruginosa C-10; assay: as above; type: cell-based; settings: P. aeruginosa C-10; meropenem + compound, checkerboard
Experimental: as §5, §6, §7, §8

[9] = tested on: Pseudomonas aeruginosa IS 6225; assay: as above; type: cell-based; settings: P. aeruginosa IS 6225, meropenem + compound
Experimental: as §5, §6, §7, §8

[10] = tested on: Stenotrophomonas maltophilia IS 6069; assay: as above; type: cell-based; settings: S. maltophilia IS 6069, meropenem + compound
Experimental: as §5, §6, §7, §8

[11] = tested on: Stenotrophomonas maltophilia IS 6081; assay: as above; type: cell-based; settings: S. maltophilia IS 6081, meropenem + compound
Experimental: as §5, §6, §7, §8

[12] = tested on: Pseudomonas aeruginosa IS 5563; assay: as above; type: cell-based; settings: P. aeruginosa IS 5563; meropenem + compound, checkerboard
Experimental: as §5, §6
as §7, with “Lanes with no bacteria added served as sterility controls and lanes with no meropenem or compound served as growth controls.” left out
as §8

[13] = tested on: Stenotrophomonas maltophilia IS 5568; assay: as above; type: cell-based; settings: S. maltophilia IS 5568; meropenem + compound, checkerboard
Experimental: as §5, §6
as §7, with “Lanes with no bacteria added served as sterility controls and lanes with no meropenem or compound served as growth controls.” left out
as §8

IMP-1 = target: T6, IMP-1 (Serratia marcescens, UniProt P52699); assay: Sensitivity of IMP-1 to proteolysis by trypsin after incubation with inhibitor; type: biochemical; settings: incubation of IMP-1 with inhibitor
T6 construct: made in house; host or cells: Escherichia coli BL21(DE3) carrying pCIP4

β-lactamases = assay: β-Lactamase inhibition, result in words; type: biochemical
Excerpt: In preferred embodiments, the compounds incorporate a good leaving group at the C3′ carbon that can be readily expelled as an anion. In some embodiments, the leaving group is a C3′-benzoylthio group, which may be substituted or unsubstituted, according to the definitions provided above for substituted or unsubstituted.
This effect correlates with the expected better leaving group ability of the benzoylthio group in the hydrolysis product versus the benzoate group in the comparative compound.

Sequence of class B β-lactamase NDM-1 (C7C422 29-270, looked up): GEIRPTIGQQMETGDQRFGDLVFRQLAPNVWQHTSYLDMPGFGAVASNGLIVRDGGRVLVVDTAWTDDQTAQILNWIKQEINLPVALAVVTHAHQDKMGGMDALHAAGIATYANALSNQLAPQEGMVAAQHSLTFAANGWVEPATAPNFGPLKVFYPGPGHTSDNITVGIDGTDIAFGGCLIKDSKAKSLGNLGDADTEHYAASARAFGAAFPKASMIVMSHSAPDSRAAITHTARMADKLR
T1 sequence (Q9F663 25-293, looked up): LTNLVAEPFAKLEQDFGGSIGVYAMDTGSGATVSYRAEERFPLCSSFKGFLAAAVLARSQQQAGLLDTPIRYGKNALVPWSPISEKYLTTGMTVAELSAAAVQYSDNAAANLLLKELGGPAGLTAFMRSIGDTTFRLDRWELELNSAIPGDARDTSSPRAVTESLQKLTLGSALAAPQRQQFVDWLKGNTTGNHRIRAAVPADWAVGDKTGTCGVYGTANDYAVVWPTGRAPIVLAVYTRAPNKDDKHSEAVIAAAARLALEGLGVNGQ
Sequence of class D β-lactamase OXA-45 (Q7WZC7 entry or part of it): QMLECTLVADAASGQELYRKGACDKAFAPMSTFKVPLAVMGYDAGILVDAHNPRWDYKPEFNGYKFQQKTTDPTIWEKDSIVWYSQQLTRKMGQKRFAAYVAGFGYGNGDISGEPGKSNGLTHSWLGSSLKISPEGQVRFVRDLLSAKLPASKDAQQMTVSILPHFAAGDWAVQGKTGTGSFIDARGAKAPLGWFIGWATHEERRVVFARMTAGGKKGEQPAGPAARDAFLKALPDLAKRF
T2 sequence (P52699 19-246, looked up): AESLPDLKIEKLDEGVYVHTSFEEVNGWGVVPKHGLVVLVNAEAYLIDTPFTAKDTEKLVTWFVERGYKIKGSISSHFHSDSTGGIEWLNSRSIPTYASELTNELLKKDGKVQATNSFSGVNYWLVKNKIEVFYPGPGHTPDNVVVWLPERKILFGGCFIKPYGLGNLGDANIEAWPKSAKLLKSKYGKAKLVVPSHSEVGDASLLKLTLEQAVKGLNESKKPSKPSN
T6 sequence (P52699 19-246 limits assumed): as the sequence (P52699 19-246, looked up) above
T5 sequence (P14489 20-266): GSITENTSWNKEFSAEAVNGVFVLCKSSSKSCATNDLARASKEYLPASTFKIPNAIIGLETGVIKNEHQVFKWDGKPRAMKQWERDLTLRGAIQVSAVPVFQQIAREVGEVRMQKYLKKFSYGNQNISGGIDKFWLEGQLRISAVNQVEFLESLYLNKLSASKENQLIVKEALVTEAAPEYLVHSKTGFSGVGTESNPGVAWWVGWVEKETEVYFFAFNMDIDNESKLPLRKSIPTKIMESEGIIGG
T4 sequence (Q59401 entry or part of it): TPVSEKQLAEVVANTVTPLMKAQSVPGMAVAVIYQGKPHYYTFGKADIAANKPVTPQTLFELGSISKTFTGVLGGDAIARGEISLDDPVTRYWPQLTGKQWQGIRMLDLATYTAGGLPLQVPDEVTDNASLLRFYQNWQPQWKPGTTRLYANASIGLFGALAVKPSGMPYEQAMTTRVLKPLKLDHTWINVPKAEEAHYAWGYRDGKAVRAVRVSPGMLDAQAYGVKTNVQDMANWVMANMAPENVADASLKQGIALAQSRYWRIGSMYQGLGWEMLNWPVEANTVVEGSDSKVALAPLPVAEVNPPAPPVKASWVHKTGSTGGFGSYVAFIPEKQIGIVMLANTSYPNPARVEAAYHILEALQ

O=C(Cc1cccs1)N[C@@H]1C(=O)N2C(C(=O)O)=C(CSC(=O)c3ccccc3)CS[C@H]12 [drawing 27]
IC50 [1]: 71 µM
IC50 [2]: 3.1 µM
IC50 [3]: 1800 nM
IC50 [4]: 33 µM
IC50 (class C β-lactamase GC1): 140 µM
IC50 [5]: 8.1 µM
IC50 [6]: 24 µM

O=C(Cc1cccs1)N[C@@H]1C(=O)N2C(C(=O)O)=C(CSC(=O)c3ccccc3)CS[C@H]12 [CMPD A, (6R,7R)-3-(benzoylthiomethyl)-8-oxo-7-(2-(thiophen-2-yl)acetamido)-5-thia-1-azabicyclo[4.2.0]oct-2-ene-2-carboxylic acid]
FIC [7]: 0.2539
FIC [8]: 0.5625
FIC [9]: 0.625
FIC [10]: 0.25
FIC [11]: 0.2539
FIC [12]: 0.1289
FIC [13]: 0.1328
effect on sensitivity of IMP-1 to proteolysis by trypsin (IMP-1): increases the sensitivity of the protein to proteolysis by trypsin
β-lactamase inhibition (β-lactamases): good inhibitor
